From US12496302B2, “Compositions and methods for the treatment and diagnosis of cancer” (The General Hospital Corporation, priority 2020, dated 2025)
Entries after “also recorded” stand apart in the source; their conditions may differ.

How the values were obtained:
Format in all cases: cell-based
TRDMT1 = molecular target: T1, TRDMT1 (Homo sapiens, UniProt O14717); experiment: m^5C staining at TA-KR DNA damage sites in cells treated with YW-1842
T1 construct: SCE WT cells were transfected with TA-KR and were cultured with 2.5 μM/L, compound YW-1842 or not for 6 hours; endogenous in cells; host or cells: SCE WT cells (U2OS-TRE type) transfected with TA-KR only
T1 sequence (O14717 1-391): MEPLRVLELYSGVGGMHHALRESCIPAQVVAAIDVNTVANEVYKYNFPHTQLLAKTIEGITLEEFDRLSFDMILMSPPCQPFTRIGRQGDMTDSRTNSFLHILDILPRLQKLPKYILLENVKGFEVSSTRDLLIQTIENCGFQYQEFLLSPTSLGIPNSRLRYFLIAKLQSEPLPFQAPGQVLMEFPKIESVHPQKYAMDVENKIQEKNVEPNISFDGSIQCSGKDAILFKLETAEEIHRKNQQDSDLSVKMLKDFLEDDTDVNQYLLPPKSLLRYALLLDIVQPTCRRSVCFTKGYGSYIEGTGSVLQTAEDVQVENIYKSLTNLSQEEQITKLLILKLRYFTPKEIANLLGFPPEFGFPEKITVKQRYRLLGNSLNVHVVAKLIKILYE
Method: (§1) FIGS. 6A-6E show TRDMT1 Inhibitors specifically sensitizes cells to DNA damage agents. (FIG. 6A) SCE WT cells were transfected with TA-KR and were cultured with 2.5 μM/L, compound YW-1842 or not for 6 hours, m^5C (n=3, 50 cells per replicated, Mean±SD) was stained and quantified. DR-GFP (FIG. 6B) or EJ5-GFP (FIG. 6C) cells were pre-treated with 2.5 μM/L, compound YW-1842 for 6 h or TRDMT1 siRNA for 48 h, or DMSO. Then the cells were transfected with NLS-I-SceI plasmid to induce DSB. The efficiency of HR (FIG. 6B) or NHEJ (FIG. 6C) was analyzed by flow-cytometry (n=3, Mean±SD). (FIG. 6D) After seeding, MCF-7, HCC1954, and HCC1937 cells were pre-treated with or without 2.5 μM/L compound YW-1842 for 6 h, then cultured with chemotherapy drugs (1 μM/L, Cisplatin; 1 μM/L ATRi AZ20; 10 μM/L, ATMi KU55933; 1 μM/L, PARPi Olaparib for 10 days. The survival rate of these cells was analyzed (n=3, Mean±SD). (FIG. 6E) TRDMT1 KO U2OS cells were transfected with GFP-TRDMT1^WT or GFP-TRDMT1^G155V with or without 2.5 μM/L, compound YW-1842, the survival rate of these cells after IR or Cisplatin was shown (n=3, Mean±SD).
The Olympus FV1000 confocal microscopy system (Cat. F10PRDMYR-1, Olympus) and FV1000 software were used for the acquisition of images. Cells were cultured in 35 mm glass-bottom dishes (MatTek, P35GC-1.5-14-C) before observation. Activation of KR in bulky cells was completed by exposing cells to a 15 W Sylvania cool white fluorescent bulb for 25 min in a stage UVP (Uvland, CA). The intensity was measured by ImageJ 1.52i software.
For m^5C staining using the heat method, the cells or tissues were fixed and permeabilized in a 35 mm glass-bottom dish using a standard protocol, incubated in buffer (10 mM Tris-HCl, 2 mM EDTA, pH=9) and steamed on a 95° C. heating block for 20 min to expose the antigen. The dish was cooled, washed 3 times with PBS and blocked using 5% BSA in 0.1% PBST for 0.5 h at room temperature. Primary antibody for m^5C (33D3, ab10805, Abcam) and secondary antibody were diluted in the same buffer (5% BSA in 0.1% PBST) and followed the standard IF protocol. […]

U2OS or MCF7 cells = experiment: Cell survival of U2OS or MCF7 cells treated with YW-1842 alone
Method: FIGS. 6F-6G show TRDMT1 inhibitor YW-1842 delays the repair of DSBs at the transcribed genome. (FIG. 6F) U2OS or MCF7 cells were treated with or without compound YW-1842 at the indicated concentration. The survival rate of these cells was shown (n=3, Mean±SD). (FIG. 6G) SCE WT cells were transfected with TA-KR and were cultured with 2.5 μM YW-1842 or not for 6 hours, γ-H2AX (n=3, 50 cells per replicated, Mean±SD) were stained and quantified.
Approximately 500 U2OS/TRDMT1 KO U2OS/MCF-7/HCC1954/HCC1937 cells and TRDMT1 siRNA or GFP-TRDMT1 WT/G155V/K251R transfected cells were seeded in 6 cm dish with or without TRDMT1 inhibitors (2.5 μM/L). 6 hrs after seeding, cells were exposed to cisplatin (1134357, Sigma, 1 μM/L), ATMi (KU55933, C9867, Sigma, 10 μM/L), ATRi (AZ20, S7050, Selleck, 1 μM/L) or PARPi (Olaparib, AZD2461, Sigma, 1 μM/L) at indicated concentration or ionizing radiation (IR). After 7-14 days, colonies were fixed and stained with 0.3% crystal violet in methanol, and the number of colonies was counted manually.

U2OS (DR-GFP) cells = experiment: DR-GFP HR reporter assay; conditions: 2.5 μM/L for 6 h, in comparison with DMSO treated group
Method: as §1
(§2) Using a previously described method[Lan, L. et al. The ACF1 complex is required for DNA double-strand break repair in human cells. […] The GFP signal arising from the recombination (HR) or non-homologous end joining (NHEJ) events were measured by flow cytometry.

U2OS (EJ5-GFP) cells = experiment: EJ5-GFP NHEJ reporter assay; conditions: 2.5 μM/L for 6 h, TRDMT1 wild type cells
Method: as §1, §2

TRDMT1 KO U2OS cells = experiment: Cell survival after IR or Cisplatin in TRDMT1 KO U2OS cells with or without YW-1842; conditions: 2.5 μM/L
Method: as §1
Approximately 500 U2OS/TRDMT1 KO U2OS/MCF-7/HCC1954/HCC1937 cells and TRDMT1 siRNA or GFP-TRDMT1 WT/G155V/K251R transfected cells were seeded in 6 cm dish with or without TRDMT1 inhibitors (2.5 μM/L). […]

COc1cc2nc(-n3cc(-c4ccc(S(C)(=O)=O)cc4)cn3)nc(-c3ccsc3)c2cc1OC [YW-1842, 6,7-dimethoxy-2-(4-(4-(methylsulfonyl)phenyl)-1H-pyrazol-1-yl)-4-(thiophen-3-yl)quinazoline]
TRDMT1 inhibition (overall statement) (TRDMT1): potent inhibitor for TRDMT1; also recorded: high inhibitory activity
inhibiting TRDMT1 recruitment, m^5C formation and HR efficiency at DNA damage sites (TRDMT1): performed well
m^5C inhibitory activity (TRDMT1; 2.5 μM/L, 6 hours, cells transfected with TA-KR): almost equivalent to TRDMT1 depletion
cell killing by compound alone (U2OS or MCF7 cells; 2.5 μM/L): does not kill cells alone
antiproliferative effect (cell proliferation) (U2OS or MCF7 cells; concentration below 5 μM/L): did not prohibit cell proliferation
HR-mediated repair of I-SceI-generated DSBs (U2OS (DR-GFP) cells): diminished the repair of I-SceI-generated DSBs
non-homologous end joining (NHEJ) efficiency (U2OS (EJ5-GFP) cells): no obvious changes
sensitization of TRDMT1 KO cells to IR or Cisplatin (TRDMT1 KO U2OS cells): does not sensitize TRDMT1 KO
